Source: US4740503A, “Novel 5-fluoro-2'-deoxyuridine derivatives and salts thereof, process for producing the same, and antitumor agents containing the same” (priority 1984, dated 1988)
Several values for one entry are separate records, joined by “and”; a condition that tells them apart may be missing. Identical values can stand only once.

Experiments:
[1] = test system: Ehrlich carcinoma cells; assay: Antitumor effect in Ehrlich carcinoma-bearing mice (tumor weight ratio to control); format: in vivo, ddY strain mice; conditions: i.p. once daily for 6 days, tumor weight on day 12 vs saline control
Method: Eight ddY strain mice (male, 5 weeks old, weight: about 25 g) per group were used, and 5×10^6 Ehrlich carcinoma cells were inoculated subcutaneously into the inguinal region of the mice. The test compound dissolved or suspended in a physiological saline solution was intraperitoneally administered to the mice once daily for 6 days from the day after the inoculation. As the control compound, FudR was used. To the control group was administered only the physiological saline solution.

[2] = Acute toxicity test (single intraperitoneal administration, LD50); conditions: mouse, in vivo, ip; single i.p. administration, male ddY mice, death judged on 14th day
Method: To ddY mice (male, 5 weeks old, 5 mice per group) was intraperitoneally administered the test compound dissolved or suspended in a physiological saline solution only one time. On the 14th day after the administration, the death of mouse was judged, and the LD50 value was calculated.

[3] = test system: thymidylate synthetase; conditions: in cells, FduMP formed from FudR; cited from earlier work
[4] = test system: cells; conditions: FduMP per se; cited from earlier work
[5] = in vitro, compared with 5-Fu; cited from earlier work
[6] = in vivo; cited from earlier work
[7] = test system: nucleoside phosphorylase; conditions: cited from earlier work
[8] = cited from earlier work

| Molecule | Effect (T/C (%)) ([1]; 1 μmole/kg/day) [%] | Effect (T/C (%)) ([1]; 3 μmole/kg/day) [%] | LD50 at 336 h [2] [mg/kg] | Effect (T/C (%)) ([1]; 10 μmole/kg/day) | further results |
| --- | --- | --- | --- | --- | --- |
| 5-Fluoro-2'-deoxy-5'-O-palmitoyl-β-uridine-3'-[2-(2-hydroxyethyldimethylammonio)ethyl]phosphate.hydrate [Test compound 11] | 38 | 17 |  |  |  |
| CCCCCCCCCCCCCCCCCC(=O)OC[C@H]1O[C@@H](n2cc(F)c(=O)[nH]c2=O)C[C@@H]1OP(=O)([O-])OCC[N+](C)(C)C [Test compound 6] |  |  | 200 |  |  |
| CCCCCCCCC=CCCCCCCCC(=O)OC[C@H]1O[C@@H](n2cc(F)c(=O)[nH]c2=O)C[C@@H]1OP(=O)([O-])OCC[N+](C)(C)C [compound 8] | 50 | 28 | 300 |  |  |
| CCCCCCCCCCCCCCCC(=O)OC[C@H]1O[C@@H](n2cc(F)c(=O)[nH]c2=O)C[C@@H]1OP(=O)([O-])OCC[N+](C)(C)CCO [compound 11] | 41 | 44 |  | 22% |  |
| 5-Fluoro-2'-deoxy-5'-O-hexanoyl-β-uridine-3'-(2-trimethylammonioethyl)phosphate.hydrate [Test compound 9] |  | 38 |  | 21% |  |
| 5-Fluoro-2'-deoxy-5'-O-palmitoyl-β-uridine-3'-[2-(1-pyrazolyl)ethyl]phosphate.hydrate [Example 7] | 40 | 27 |  |  |  |
| CCCCCCCCCCCCCCCCCC(=O)O[C@H]1C[C@H](n2cc(F)c(=O)[nH]c2=O)O[C@@H]1COP(=O)([O-])OCC[N+](C)(C)C [Test compound 2] |  |  | 188 |  |  |
| CCCCCCCCCCCCCCCC(=O)OC[C@H]1O[C@@H](n2cc(F)c(=O)[nH]c2=O)C[C@@H]1OP(=O)([O-])OCC[N+]1(C)CCOCC1 [compound 12] | 46 | 28 |  |  |  |
| O=c1[nH]c(=O)n([C@H]2C[C@H](O)[C@@H](COP(=O)(O)O)O2)cc1F [FduMP, 5-fluoro-2'-deoxyuridine-5'-monophosphate] |  |  |  |  | thymidylate synthetase inhibition [3]: inhibits thymidylate synthetase; uptake by cells [4]: not taken up by cells |
| O=c1[nH]c(=O)n([C@H]2C[C@H](O)[C@@H](CO)O2)cc1F [FudR, 5-fluoro-2'-deoxy-β-uridine] |  | 87 |  | 67% and 77% | Effect (T/C (%)) ([1]; 30 μmole/kg/day): 42%; cytocidal activity [5]: stronger cytocidal activity than 5-fluorouracil; excretion [6]: rapidly excreted in vivo; metabolism [6]: metabolized to α-fluoro-β-alanine through 5-Fu; persistency [6]: poor in persistency; cleavage by nucleoside phosphorylase [7]: easily cleaved by nucleoside phosphorylase; clinical toxicity [8]: high toxicity; clinical efficacy ([8]; compared with 5-Fu): only equivalent in efficacy to 5-Fu |
| 5-Fluoro-2'-deoxy-5'-O-palmitoyl-β-uridine-3'-[2-(2H-1,2,4-triazol-1-io)ethyl]phosphate.hydrate [Test compound 10] |  | 66 |  | 34% |  |
| CCCCCCCCCCCCCCCC(=O)OC[C@H]1O[C@@H](n2cc(F)c(=O)[nH]c2=O)C[C@@H]1OP(=O)([O-])OCC[N+](C)(C)C [Test compound 5] |  |  | > 200 |  |  |
| 5-Fluoro-2'-deoxy-3'-O-palmitoyl-β-uridine-5'-[2-(4-dimethylaminopyridinio)ethyl]phosphate.hydrate [Test compound 4] |  | 22 |  | 19% |  |
| CCCCCCCC/C=C\CCCCCCCC(=O)O[C@H]1C[C@H](n2cc(F)c(=O)[nH]c2=O)O[C@@H]1COP(=O)([O-])OCC[N+](C)(C)C [Test compound 3] |  |  | 200 |  |  |
| CCCCCC(=O)OC[C@H]1O[C@@H](n2cc(F)c(=O)[nH]c2=O)C[C@@H]1OP(=O)([O-])OCC[N+](C)(C)C [compound 9] | 50 | 32 | 500 |  |  |
| CCCCCCCCCCCCCCCC(=O)OC[C@H]1O[C@@H](n2cc(F)c(=O)[nH]c2=O)C[C@@H]1OP(=O)([O-])OCC[n+]1cnc[nH]1 [compound 10] | 42 | 36 |  | 18% |  |
| CCCCCCCCCCCCCCCC(=O)O[C@H]1C[C@H](n2cc(F)c(=O)[nH]c2=O)O[C@@H]1COP(=O)([O-])OCC[N+](C)(C)C [compound 1] |  | 47 | 208 | 19% | Effect (T/C (%)) ([1]; 30 μmole/kg/day): 15% |
| 5-Fluoro-2'-deoxy-5'-O-palmitoyl-β-uridine-3'-{2-[4-(4-methyl)morpholinio]ethyl}phosphate.hydrate [Test compound 12] | 24 | 10 |  |  |  |
| CCCCCCCCCCCC(=O)OC[C@H]1O[C@@H](n2cc(F)c(=O)[nH]c2=O)C[C@@H]1OP(=O)([O-])OCC[N+](C)(C)C [Test compound 7] |  |  | > 300 |  |  |
